This note sets out measurements from PMC2852139 (Biochemistry, 2010).

This assay concerns the target T1, Apaf-1 (Homo sapiens, UniProt O14727).
T1 sequence (O14727 1-1248): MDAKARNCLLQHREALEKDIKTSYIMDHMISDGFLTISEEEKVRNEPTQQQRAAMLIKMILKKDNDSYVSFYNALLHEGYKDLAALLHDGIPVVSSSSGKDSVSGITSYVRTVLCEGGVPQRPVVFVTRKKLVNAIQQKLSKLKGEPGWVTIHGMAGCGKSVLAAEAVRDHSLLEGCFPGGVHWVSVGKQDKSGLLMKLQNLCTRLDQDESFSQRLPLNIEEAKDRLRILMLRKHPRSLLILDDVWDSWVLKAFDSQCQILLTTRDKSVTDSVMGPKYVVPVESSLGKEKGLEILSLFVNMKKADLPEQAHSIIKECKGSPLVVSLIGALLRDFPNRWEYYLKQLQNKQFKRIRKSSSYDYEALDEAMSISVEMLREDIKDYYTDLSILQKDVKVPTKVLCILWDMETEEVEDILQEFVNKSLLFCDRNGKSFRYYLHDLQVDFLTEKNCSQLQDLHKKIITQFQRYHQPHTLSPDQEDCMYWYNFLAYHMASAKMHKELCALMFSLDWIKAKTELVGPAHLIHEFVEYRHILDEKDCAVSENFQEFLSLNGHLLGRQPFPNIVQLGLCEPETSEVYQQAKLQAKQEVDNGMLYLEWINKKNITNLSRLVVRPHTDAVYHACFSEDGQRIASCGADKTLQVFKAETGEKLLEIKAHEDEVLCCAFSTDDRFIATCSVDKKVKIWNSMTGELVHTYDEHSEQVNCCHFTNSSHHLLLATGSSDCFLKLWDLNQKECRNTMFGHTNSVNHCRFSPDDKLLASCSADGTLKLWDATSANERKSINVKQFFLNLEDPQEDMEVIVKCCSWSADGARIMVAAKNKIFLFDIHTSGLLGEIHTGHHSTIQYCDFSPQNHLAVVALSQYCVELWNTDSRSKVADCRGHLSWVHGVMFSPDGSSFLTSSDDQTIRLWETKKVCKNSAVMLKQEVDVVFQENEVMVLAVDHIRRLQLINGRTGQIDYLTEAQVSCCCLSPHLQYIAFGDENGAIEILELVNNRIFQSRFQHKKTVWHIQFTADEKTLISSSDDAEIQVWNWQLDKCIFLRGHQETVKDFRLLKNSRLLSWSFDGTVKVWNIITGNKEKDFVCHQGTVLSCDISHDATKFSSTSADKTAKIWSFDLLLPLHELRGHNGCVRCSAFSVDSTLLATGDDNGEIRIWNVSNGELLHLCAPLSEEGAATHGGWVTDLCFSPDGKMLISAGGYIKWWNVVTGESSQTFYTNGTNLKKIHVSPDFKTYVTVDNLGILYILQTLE
T1 sequence (P06454 2-111 partner): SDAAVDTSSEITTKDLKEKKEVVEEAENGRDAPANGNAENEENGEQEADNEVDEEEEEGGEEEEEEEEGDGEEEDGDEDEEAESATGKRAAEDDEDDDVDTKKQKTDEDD
Nature of the assay: ELISA and FLAG-IP of recombinant Apaf-1/ProT interaction blocked by BETT. The format is biochemical.

The structures appear in SMILES notation.

Broadly, the EC50 is the concentration needed to bring the measured effect to its halfway point. Regarding `Sc1nnc(-c2cc3ccccc3o2)n1-c1ccccc1` [BETT, 5-(2-Benzofuryl)-4-phenyl-1,2,4-triazole-3-thiol], the EC50 is roughly 50 µM.
